Experimental data as given in the NIST ThermoML archive (doi:10.1016/j.jct.2011.01.014).

Experiment: xn = mol fraction of the nth substance listed
Details: 101 kPa, Liquid; for speed of sound: sound velocity cell; for mass density: Vibrating tube method

CC(=O)[O-].[NH3+]CCO [2-hydroxyethylammonium acetate] + CCO
Details	mass density [kg/m3]	speed of sound [m/s]
305.65 K, x1 = 0.0497	–	1161.8
305.65 K, x1 = 0.101	–	1201.5
305.65 K, x1 = 0.201	–	1273.6
305.65 K, x1 = 0.3009	–	1359.9
305.65 K, x1 = 0.4057	–	1421.5
305.65 K, x1 = 0.4946	–	1483
305.65 K, x1 = 0.603	–	1556.5
305.65 K, x1 = 0.6765	–	1601.8
305.65 K, x1 = 0.7918	–	1660.8
305.65 K, x1 = 0.8825	–	1708.2
305.65 K, x1 = 0.9539	–	1748.7
305.65 K, x1 = 1	–	1773.4
308.15 K, x1 = 0.0497	813.395	1153.6
308.15 K, x1 = 0.101	846.797	1193.5
308.15 K, x1 = 0.201	902.073	1266
308.15 K, x1 = 0.3009	949.706	1352.8
308.15 K, x1 = 0.4057	992.164	1414.7
308.15 K, x1 = 0.4946	1023.13	1476.4
308.15 K, x1 = 0.603	1056.17	1550.2
308.15 K, x1 = 0.6765	1076.23	1595.6
308.15 K, x1 = 0.7918	1104.25	1654.6
308.15 K, x1 = 0.8825	1123.77	1702.2
308.15 K, x1 = 0.9539	1136.79	1742.2
308.15 K, x1 = 1	1143.39	1767.9
310.65 K, x1 = 0.0497	811.269	1145.4
310.65 K, x1 = 0.101	844.752	1185.5
310.65 K, x1 = 0.201	900.153	1258.5
310.65 K, x1 = 0.3009	947.892	1345.7
310.65 K, x1 = 0.4057	990.442	1407.8
310.65 K, x1 = 0.4946	1021.48	1469.7
310.65 K, x1 = 0.603	1054.53	1544
310.65 K, x1 = 0.6765	1074.71	1589.6
310.65 K, x1 = 0.7918	1102.76	1648.5
310.65 K, x1 = 0.8825	1122.31	1696.2
310.65 K, x1 = 0.9539	1135.37	1735.9
310.65 K, x1 = 1	1141.96	1762.5
313.15 K, x1 = 0.0497	809.131	1137.2
313.15 K, x1 = 0.101	842.694	1177.6
313.15 K, x1 = 0.201	898.225	1251
313.15 K, x1 = 0.3009	946.069	1338.7
313.15 K, x1 = 0.4057	988.723	1401
313.15 K, x1 = 0.4946	1019.83	1463.2
313.15 K, x1 = 0.603	1052.87	1537.7
313.15 K, x1 = 0.6765	1073.17	1583.5
313.15 K, x1 = 0.7918	1101.31	1642.5
313.15 K, x1 = 0.8825	1120.85	1690.2
313.15 K, x1 = 0.9539	1133.96	1729.9
313.15 K, x1 = 1	1140.55	1757.2
315.65 K, x1 = 0.0497	806.984	1129.1
315.65 K, x1 = 0.101	840.628	1169.7
315.65 K, x1 = 0.201	896.29	1243.5
315.65 K, x1 = 0.3009	944.245	1331.6
315.65 K, x1 = 0.4057	986.994	1394.2
315.65 K, x1 = 0.4946	1018.18	1456.6
315.65 K, x1 = 0.603	1051.28	1531.4
315.65 K, x1 = 0.6765	1071.63	1577.4
315.65 K, x1 = 0.7918	1099.86	1636.6
315.65 K, x1 = 0.8825	1119.38	1684.4
315.65 K, x1 = 0.9539	1132.54	1723.9
315.65 K, x1 = 1	1139.18	1751.9
318.15 K, x1 = 0.0497	804.825	1120.9
318.15 K, x1 = 0.101	838.551	1161.8
318.15 K, x1 = 0.201	894.347	1235.9
318.15 K, x1 = 0.3009	942.413	1324.5
318.15 K, x1 = 0.4057	985.266	1387.3
318.15 K, x1 = 0.4946	1016.52	1450
318.15 K, x1 = 0.603	1049.69	1525.2
318.15 K, x1 = 0.6765	1070.09	1571.3
318.15 K, x1 = 0.7918	1098.4	1630.7
318.15 K, x1 = 0.8825	1117.9	1678.6
318.15 K, x1 = 0.9539	1131.12	1718.1
318.15 K, x1 = 1	1137.82	1746.5
320.65 K, x1 = 0.0497	802.647	1112.8
320.65 K, x1 = 0.101	836.46	1153.9
320.65 K, x1 = 0.201	892.395	1228.4
320.65 K, x1 = 0.3009	940.573	1317.5
320.65 K, x1 = 0.4057	983.53	1380.5
320.65 K, x1 = 0.4946	1014.85	1443.5
320.65 K, x1 = 0.603	1048.1	1519
320.65 K, x1 = 0.6765	1068.53	1565.3
320.65 K, x1 = 0.7918	1096.93	1624.8
320.65 K, x1 = 0.8825	1116.49	1672.8
320.65 K, x1 = 0.9539	1129.69	1712.4
320.65 K, x1 = 1	1136.45	1741.3
323.15 K, x1 = 0.0497	800.468	1104.7
323.15 K, x1 = 0.101	834.368	1146
323.15 K, x1 = 0.201	890.443	1221
323.15 K, x1 = 0.3009	938.735	1310.5
323.15 K, x1 = 0.4057	981.801	1373.7
323.15 K, x1 = 0.4946	1013.19	1437
323.15 K, x1 = 0.603	1046.54	1512.7
323.15 K, x1 = 0.6765	1066.98	1559.4
323.15 K, x1 = 0.7918	1095.47	1618.9
323.15 K, x1 = 0.8825	1115.06	1667.2
323.15 K, x1 = 0.9539	1128.27	1706.7
323.15 K, x1 = 1	1135.08	1736
